Source: patent publication US4599333A, “Hydrazinopyridazine compound, process for production thereof, and use thereof as medicament” (Teikoku Hormone Mfg. Co., Ltd., priority 1984, dated 1986)

Experiments:
Assay type in all cases: in vivo, male Wistar rats
β1-adrenoceptors = target: T1, β1-adrenoceptors (Rattus norvegicus, UniProt P18090); experiment: β1-adrenoceptor blocking action (inhibition of increase in heart rate exerted by isoproterenol) and selectivity for β1-adrenoceptors; settings: blocking activity ratio from ID50 doses; Table 2
T1 construct: Experiments were done using male Wistar rats; from tissue; host or cells: whole anesthetized male Wistar rat (in vivo; heart rate)
Description: (§1) Experiments were done using male Wistar rats weighing between 300 and 400 g, anesthetized with sodium pentobarbital (60 mg/kg i.p.). The blood pressure was directly measured by connecting a cannula inserted in the femoral artery to a pressure transducer and the heart rate was calculated from the pulse waves of the blood pressure tracings. Each value shown here was obtained from three animals. The test compounds were individually dissolved in physiological saline solution or a 0.01N aqueous solution of hydrochloric acid.
(§2) (1) Measurement of β-adrenoceptor blocking activity
The increased heart rate before injection of the test compound was represented by H1. Three minutes after i.v. injection of the test compound, isoproterenol (0.1 μg/kg i.v.) was again administered and then the change in heart rate was measured. The maximum increase in heart rate after injection of the test compound was designated as H2. From these values, the percent inhibition of the change in heart rate was calculated in accordance with the following equation.
(§3) By repeating the procedure mentioned above at various doses of the test compounds, dose-response curves were prepared.

β2 = target: T2, β2 (Rattus norvegicus, UniProt P10608); experiment: β2-adrenoceptor blocking action (inhibition of fall in blood pressure exerted by isoproterenol); settings: iv, 50% inhibition of fall in blood pressure by isoproterenol 0.1 μg/kg i.v., Table 2, read-out: β-adrenoceptor blocking action ID50 β2
T2 construct: Experiments were done using male Wistar rats; from tissue; host or cells: whole anesthetized male Wistar rat (in vivo; arterial blood pressure)
Description: as §1, §2, §3

heart rate = experiment: Heart rate increase produced by isoproterenol; settings: single i.v. injection 0.1 μg/kg, before test compound
Description: Experiments were done using male Wistar rats weighing between 300 and 400 g, anesthetized with sodium pentobarbital (60 mg/kg i.p.). The blood pressure was directly measured by connecting a cannula inserted in the femoral artery to a pressure transducer and the heart rate was calculated from the pulse waves of the blood pressure tracings. Each value shown here was obtained from three animals. The test compounds were individually dissolved in physiological saline solution or a 0.01N aqueous solution of hydrochloric acid. A single intravenous (i.v.) injection of isoproternol (0.1 μg/kg) produced an increase in heart rate by approximately 90 beats/min. The increased heart rate before injection of the test compound was represented by H1. Three minutes after i.v. injection of the test compound, isoproterenol (0.1 μg/kg i.v.) was again administered and then the change in heart rate was measured. The maximum increase in heart rate after injection of the test compound was designated as H2. From these values, the percent inhibition of the change in heart rate was calculated in accordance with the following equation.

T2 sequence (P10608 whole entry): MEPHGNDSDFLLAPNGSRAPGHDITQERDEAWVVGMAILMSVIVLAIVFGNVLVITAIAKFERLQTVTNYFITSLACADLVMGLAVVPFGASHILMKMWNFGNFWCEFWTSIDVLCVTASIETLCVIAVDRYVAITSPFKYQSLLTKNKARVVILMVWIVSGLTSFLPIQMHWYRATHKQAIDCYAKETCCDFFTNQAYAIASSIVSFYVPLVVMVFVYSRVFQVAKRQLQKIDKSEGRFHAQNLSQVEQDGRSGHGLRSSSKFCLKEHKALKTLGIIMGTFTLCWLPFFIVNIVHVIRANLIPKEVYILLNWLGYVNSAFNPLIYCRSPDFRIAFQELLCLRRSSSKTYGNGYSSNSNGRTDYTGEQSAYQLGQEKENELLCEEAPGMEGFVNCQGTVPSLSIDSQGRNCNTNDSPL
T1 sequence (P18090 whole entry): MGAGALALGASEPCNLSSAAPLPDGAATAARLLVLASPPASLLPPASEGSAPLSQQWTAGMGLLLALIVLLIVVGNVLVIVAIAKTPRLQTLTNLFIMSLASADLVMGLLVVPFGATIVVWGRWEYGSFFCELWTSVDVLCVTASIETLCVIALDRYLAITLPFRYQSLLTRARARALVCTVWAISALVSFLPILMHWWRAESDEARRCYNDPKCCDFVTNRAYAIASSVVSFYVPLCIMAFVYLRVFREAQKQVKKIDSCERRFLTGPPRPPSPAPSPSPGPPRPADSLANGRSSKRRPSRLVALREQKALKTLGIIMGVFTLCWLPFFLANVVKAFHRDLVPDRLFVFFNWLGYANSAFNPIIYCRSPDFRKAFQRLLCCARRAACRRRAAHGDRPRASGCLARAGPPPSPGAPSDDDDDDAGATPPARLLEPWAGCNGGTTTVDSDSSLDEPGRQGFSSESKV

Compound | Selectivity for β1-adrenoceptors (β1/β2) (β1-adrenoceptors) | ED50 (β2) [mg/kg] | increase in heart rate (heart rate)
CC(C)NCC(O)COc1ccc(CC(N)=O)cc1 (stereo not drawn) [Atenolol, reference compound] | 30 | 1.5 | –
CC(C)(COc1ccc(NN)nn1)NCC(O)COc1ccccc1Cl (stereo not drawn) [B, 1-(2-chlorophenoxy)-3-[1,1-dimethyl-2-(3-hydrazino-6-pyridazinyloxy)ethylamino]-2-propanol] | 29 | 0.23 | –
Cc1ccccc1OCC(O)CNC(C)(C)COc1ccc(NN)nn1 (stereo not drawn) [C, 1-(2-methylphenoxy)-3-[1,1-dimethyl-2-(3-hydrazino-6-pyridazinyloxy)ethylamino]-2-propanol] | 30 | 0.45 | –
CC(C)(COc1ccc(NN)nn1)NCC(O)COc1ccccc1C#N (stereo not drawn) [Compound I, 1-(2-cyanophenoxy)-3-[1,1-dimethyl-2-(3-hydrazino-6-pyridazinyloxy)ethylamino]-2-propanol] | 5 | 0.1 | –
Cc1ccc(C#N)c(OCC(O)CNC(C)(C)COc2ccc(NN)nn2)c1 (stereo not drawn) [K, 1-(2-cyano-5-methylphenoxy)-3-[1,1-dimethyl-2-(3-hydrazino-6-pyridazinyloxy)ethylamino]-2-propanol] | 2 | 0.1 | –
C#Cc1ccccc1OCC(O)CNC(C)(C)COc1ccc(NN)nn1 (stereo not drawn) [R, 1-(2-ethinylphenoxy)-3-[1,1-dimethyl-2-(3-hydrazino-6-pyridazinyloxy)ethylamino]-2-propanol] | > 5 | – | –
CC(C)NCC(O)c1ccc(O)c(O)c1 (stereo not drawn) [isoproternol, isoproterenol] | – | – | approximately 90 beats/min
